These results are taken from article PMC10427817, “Bioactivities of β-mangostin and its new glycoside derivatives synthesized by enzymatic reactions” (Royal Society Open Science, 2023).

Structures are written as SMILES. ≈ marks a conversion by molar mass, not a printed value. Read-outs that look alike come from different tables or passages of the source.

In data set [1] the target is T1, AChE (Homo sapiens, UniProt P22303). Particulars: ref 32; cited from earlier work.
A further data set has as its system BuChE. Particulars: cited from earlier work.
The test system of the next data set is KB epidermal carcinoma. Nature of the data set: MTT cytotoxicity assay, KB. Type of data set: cell-based, human. Particulars: Homo sapiens, KB cell line, 72 h, mean ± s.d., three replicates. As for the experimental part: (§1) The cytotoxic activities against the cancer cell lines KB epidermal carcinoma, A549 lung cancer, HepG2 liver cancer and MCF-7 breast cancer, as well as the healthy cell line HEK293 embryonic kidney cells, were determined using the 3-(4,5-dimethylthiazol-2-yl)-2,5-diphenyltetrazolium bromide (MTT) assay. Briefly, cell lines were grown into log phase at 37°C, 5% CO2 in DMEM-Dulbecco's modified Eagle's medium and 10% fetal bovine serum. A concentration of 1 × 10^4–3 × 10^4 cells ml^−1 was prepared depending on the cell line used for the experiment by adding 10 µl of the sample and 190 µl of the cell suspension, followed by incubation under standard conditions. After 72 h of culture, 10 µl of MTT (5 mg ml^−1) was added and incubated for 4 h. Dimethyl sulfoxide (100 µl) was added to dissolve formazan crystals and the density was measured at 540 nm using a BioTek spectrophotometer. The inhibition of cell growth was expressed as IC50 (the half-maximal inhibitory concentration) value.
(Tetrazolium assays rely on reduction of a dye to a coloured formazan, in cell work by metabolically active cells.)

The test system of a further data set is MCF-7 breast cancer. Nature of the data set: MTT cytotoxicity assay, MCF-7. Type of data set: cell-based, human. Particulars: Homo sapiens, MCF7, MCF-7 cell line, 72 h, mean ± s.d., three replicates. As to the method:
as §1

The next data set concerns A549 lung cancer. Kind of data set: MTT cytotoxicity assay, A549. Type of data set: cell-based, human. Particulars: Homo sapiens; A549 cell line, MTT, 72 h, mean ± s.d., three replicates; read-out: IC50. As to the method:
as §1, with “value. Ellipticine was used as reference.” for “value.”

In another data set the test system is HepG2 liver cancer. Kind of data set: MTT cytotoxicity assay, HepG2. Type of data set: cell-based, human. Particulars: Homo sapiens, HepG2 cell line, 72 h, mean ± s.d., three replicates. As for the experimental part:
as §1, with “value. Ellipticine was used as reference.” for “value.”

Data set [2] relates to HEK293 embryonic kidney cells. Kind of data set: MTT cytotoxicity assay, HEK293. The data set is classed as cell-based, human. Particulars: Homo sapiens, HEK293 healthy cell line, 72 h, mean ± s.d., three replicates. As for the experimental part: as §1, with “value. Ellipticine was used as reference.” for “value.”
For data set [3], the system named is KB, MCF-7, A549, HepG2, HEK293 cell lines. Kind of data set: MTT cytotoxicity assay, range over all tested cell lines. The data set is classed as cell-based, human. Particulars: for IC50: Homo sapiens, range over all tested cell lines, MTT, 72 h. As to the method: as §1, with “value. Ellipticine was used as reference.” for “value.”
Data set [4] addresses T1, AChE. Nature of the data set: Acetylcholinesterase inhibitory activity assay. The settings on record: AChE 0.25 IU ml^−1, ATCI/DTNB, mean ± s.d., three replicates. Type of data set: biochemical. As for the experimental part:
For the assay, acetylthiocholine iodide (ATCI) was used as a substrate for the reaction and 5,5′-dithiobis-(2-nitrobenzoic acid) (DTNB) was used to measure AChE activity. The reaction (200 µl) on a 96-well plate was performed by mixing Tris–Cl buffer (pH 8.0), tested sample in a twofold serial dilution, AChE (0.25 IU ml^−1) and incubating at 25°C, 15 min before adding 2.4 mM DTNB and 2.4 mM ATCI.

The target of the next data set is T2, α-glucosidase (Saccharomyces cerevisiae, UniProt P53341).
T2 construct: purchased Sigma
Kind of data set: Alpha-glucosidase inhibitory assay. The data set is classed as biochemical. As to the method: Beta-mangostin and α-mangostin were purchased from Chengdu Biopurify Phytochemicals, Ltd. Recombinant Escherichia coli (BL21 (DE3)) strains were kindly provided by Prof. Jae Kyung Sohng, Sun Moon University, Korea. The cell lines and microorganisms were derived from the American Type Culture Collection (ATCC). α-Glucosidase (CAS no. 900-42-7, Sigma) was from Saccharomyces cerevisiae. All chemicals were of analytical grade and available.
The α-glucosidase inhibitory activity assay was conducted using a reaction mixture containing phosphate buffer (100 mM; pH 6.8), p-nitrophenyl-α-D-glucopyranoside (pNPG) (2.5 mM) and samples at various concentrations. The reactions were initiated by adding α-glucosidase (0.2 U ml^−1), incubated at 37°C for 30 min and quenched by adding Na2CO3 (50 mM). The absorbance of the reaction was determined using a BioTek instrument at a wavelength of 410 nm (A).

In the next data set the test system is Staphylococcus aureus. Kind of data set: Anti-microbial activity assay, S. aureus. The data set is classed as cell-based. Particulars: S. aureus; for IC50: read-out: IC50; for MIC: read-out: MIC. As for the experimental part: (§2) Bacterial and fungal strains (Bacillus subtilis, Staphylococcus aureus, Lactobacillus fermentum, Escherichia coli, Pseudomonas aeruginosa, Salmonella enterica and Candida albicans) were activated on TSA (Tryptic Soy Agar) and SA (Sabouraud–4% dextrose agar) media, respectively. Before the experiment, the microbial strains were grown in the corresponding liquid media at a concentration of approximately 5 × 10^5 CFU ml^−1 for bacteria and 1 × 10^3 CFU ml^−1 for fungi. The microbial suspension (190 µl) was mixed with 10 µl of the test sample, which was serially diluted twofold, and the microplate was incubated at 37°C for 16–24 h.

The test system of another data set is Bacillus subtilis. Kind of data set: Anti-microbial activity assay, B. subtilis. Type of data set: cell-based. The settings on record: B. subtilis; for IC50: read-out: IC50; for MIC: read-out: MIC. As for the experimental part: as §2
Another data set relates to Lactobacillus fermentum. Nature of the data set: Anti-microbial activity assay, L. fermentum. Particulars: L. fermentum; for IC50: read-out: IC50; for MIC: read-out: MIC. The data set is classed as cell-based. As for the experimental part:
as §2

In a further data set the test system is Salmonella enterica. Kind of data set: Anti-microbial activity assay, S. enterica. The data set is classed as cell-based. As to the method: as §2
The subject of a further data set is Escherichia coli. Nature of the data set: Anti-microbial activity assay, E. coli. Particulars: Escherichia coli; for MIC: read-out: MIC. Type of data set: cell-based. As for the experimental part:
as §2

A further data set has as its system Pseudomonas aeruginosa. Nature of the data set: Anti-microbial activity assay, P. aeruginosa. Type of data set: cell-based. The settings on record: Pseudomonas aeruginosa; for MIC: read-out: MIC. As for the experimental part:
as §2

Another data set relates to Candida albicans. Kind of data set: Anti-microbial activity assay, C. albicans. The settings on record: Candida albicans; for IC50: read-out: IC50; for MIC: read-out: MIC. The data set is classed as cell-based. As for the experimental part: as §2
The test system of data set [5] is hepatocellular carcinoma cell lines (Huh-7, Hep3B, HepG2). Details: method as in PMID 32516967. The settings on record: cited from earlier work.

By IC50 is commonly meant the point on the concentration scale where inhibition reaches its midpoint. In general, MIC refers to the lowest concentration that inhibits growth of the organism.

T1 sequence (P22303 32-614): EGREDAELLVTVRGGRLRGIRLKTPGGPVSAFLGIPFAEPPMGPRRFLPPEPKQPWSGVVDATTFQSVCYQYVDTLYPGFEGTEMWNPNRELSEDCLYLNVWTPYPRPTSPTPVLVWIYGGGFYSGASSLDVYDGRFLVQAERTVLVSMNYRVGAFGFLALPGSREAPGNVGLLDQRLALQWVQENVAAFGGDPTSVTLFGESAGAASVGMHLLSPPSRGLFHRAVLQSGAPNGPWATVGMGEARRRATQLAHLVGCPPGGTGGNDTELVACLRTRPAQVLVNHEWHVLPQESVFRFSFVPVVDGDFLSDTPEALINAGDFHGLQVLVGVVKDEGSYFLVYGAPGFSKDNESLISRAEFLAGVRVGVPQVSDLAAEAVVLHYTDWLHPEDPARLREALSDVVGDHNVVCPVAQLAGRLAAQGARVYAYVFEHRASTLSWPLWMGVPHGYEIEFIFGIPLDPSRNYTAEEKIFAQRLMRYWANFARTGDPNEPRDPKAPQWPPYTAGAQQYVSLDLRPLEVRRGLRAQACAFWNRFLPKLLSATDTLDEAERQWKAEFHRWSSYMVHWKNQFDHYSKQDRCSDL
T2 sequence (P53341 whole entry): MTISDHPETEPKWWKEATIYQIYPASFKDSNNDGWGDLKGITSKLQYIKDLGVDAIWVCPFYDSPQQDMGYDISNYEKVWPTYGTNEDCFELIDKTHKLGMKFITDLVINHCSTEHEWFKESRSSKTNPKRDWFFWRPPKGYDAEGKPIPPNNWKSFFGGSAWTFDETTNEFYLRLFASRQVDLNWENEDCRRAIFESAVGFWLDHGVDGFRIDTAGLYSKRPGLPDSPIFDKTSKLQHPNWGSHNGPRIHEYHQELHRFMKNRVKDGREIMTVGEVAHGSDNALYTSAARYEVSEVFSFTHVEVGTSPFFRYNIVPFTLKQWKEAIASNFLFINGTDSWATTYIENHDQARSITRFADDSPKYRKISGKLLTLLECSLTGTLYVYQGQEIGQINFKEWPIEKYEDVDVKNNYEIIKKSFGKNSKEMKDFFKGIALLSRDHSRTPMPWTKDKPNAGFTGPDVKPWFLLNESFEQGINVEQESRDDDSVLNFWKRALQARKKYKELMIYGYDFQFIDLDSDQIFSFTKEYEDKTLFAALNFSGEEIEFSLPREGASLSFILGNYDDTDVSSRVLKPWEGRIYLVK

Take `O=c1c2ccccc2oc2cc(OCCN3CCCC3)cc(O)c12` [3-(2-(pyrrolidinyl)ethoxy)-1-hydroxy-9H-xanthen-9-one]: the IC50 is 2.4 µM on AChE [1] and 31.2 µM in the data set on BuChE (ref 32).

Consider `COc1cc2oc3cc(O[C@@H]4O[C@H](CO)[C@@H](O)[C@H](O)[C@H]4O)c(OC)c(CC=C(C)C)c3c(=O)c2c(O)c1CC=C(C)C` [β-ManGlc (2), β-mangostin 6-O-β-D-glucopyranoside], for which the half-inhibitory concentration (IC50) (in the data set on KB epidermal carcinoma; with MCF-7 breast cancer; with A549 lung cancer; with HepG2 liver cancer; in data set [2]; in [3]) was above 50 µM each time. Besides, the IC50 on AChE [4] was above 50 µM; against α-glucosidase, above 50 µM; in the data set on Staphylococcus aureus, above 29 mg/L; with Bacillus subtilis, above 29 mg/L; in the data set with Lactobacillus fermentum it was above 29 mg/L; in the data set with Salmonella enterica it was above 29 mg/L. The IC50 with Escherichia coli, in the data set with Pseudomonas aeruginosa and with Candida albicans was above 29 mg/L throughout. Moreover, the minimal inhibitory concentration (MIC) in the data set on Staphylococcus aureus, in the data set with Bacillus subtilis, with Lactobacillus fermentum, against Salmonella enterica, in the data set on Escherichia coli and in the data set with Pseudomonas aeruginosa was above 29 mg/L throughout. Further, the MIC with Candida albicans was above 29 mg/L.

As for `COc1c(O)cc2oc3cc(O)c(CC(O)C(C)(C)O)c(O)c3c(=O)c2c1CCC(C)C` (centres unmarked) [compound (5), 2-(2,3-dihydroxy-3-methylbutyl)-1,3,6-trihydroxy-8-isopentyl-7-methoxy-9H-xanthen-9-one], the IC50 in the data set on BuChE (ref 31) was 7.55 µM.

For `COc1c(O[C@H]2C[C@@H](O)[C@H](O)[C@@H](CO)O2)cc2oc3cc(O)c(CC=C(C)C)c(O)c3c(=O)c2c1CC=C(C)C` [Man-6DG, α-mangostin 6-O-β-D-2-deoxyglucopyranoside], the “growth and migration of hepatocellular carcinoma cell lines” value in data set [5] was “suppressed the growth and migration”.

On to `COc1cc2oc3cc(OC4CC(O)C(O)C(CO)O4)c(OC)c(CC=C(C)C)c3c(=O)c2c(O)c1CC=C(C)C` [β-Man2DG (1), β-mangostin 6-O-β-D-2-deoxyglucopyranoside], for which the half-maximal inhibitory concentration (IC50) with KB epidermal carcinoma was 59.2 ± 3.87 µM; in the data set with MCF-7 breast cancer, 79 ± 7.9 µM; with A549 lung cancer, 85.4 ± 6.5 µM; with HepG2 liver cancer, 92.3 ± 2.3 µM; in data set [2] it was 84.1 ± 6.3 µM; in data set [3], 59.2 to 92.3 µM. Besides, the IC50 against AChE [4] was above 124 µM; on α-glucosidase, above 124 µM; with Staphylococcus aureus, above 71 mg/L; with Bacillus subtilis, above 71 mg/L; with Lactobacillus fermentum, 68.2 ± 1.98 mg/L (≈ 120 µM); with Salmonella enterica it was above 71 mg/L. The IC50 with Escherichia coli, with Pseudomonas aeruginosa and with Candida albicans was above 71 mg/L throughout. In addition, in data set [3] (versus β-mangostin), the “fold lower cytotoxic activity than that of aglycone” value was found to be 4.8 fold. Besides, the MIC in the data set on Staphylococcus aureus, in the data set on Bacillus subtilis, in the data set with Lactobacillus fermentum, against Salmonella enterica, in the data set on Escherichia coli and in the data set with Pseudomonas aeruginosa was above 71 mg/L each time. In the data set with Candida albicans, the MIC was above 71 mg/L.

Turning to `COc1c(O)cc2oc3cc(O[C@H]4C[C@@H](O)[C@H](O)[C@@H](CO)O4)c(CC=C(C)C)c(O)c3c(=O)c2c1CC=C(C)C` [Man-3DG, α-mangostin 3-O-β-D-2-deoxyglucopyranoside], the “growth and migration of hepatocellular carcinoma cell lines” value in [5] was “suppressed the growth and migration”.
